Experimental data published in patent EP4139472B1, “A METHOD FOR BIOTESTING OF A CONDENSED PHASE SUBSTANCES AND/OR MIXTURES ECOTOXICITY AND USE OF THE METHOD IN ECOTOXYCOLOGY” (Uniwersytet Jana Dlugosza w Czestochowie, priority 2020, dated 2021).
Values joined by “and” are separate entries in the source; they are usually repeats but may differ in a detail not shown here. Equal entries are not always repeated. Where two headings read alike, the source gives them in different places.

Test system: A. fischeri bacteria
Test: Bioluminescence inhibition of A. fischeri, modified Microtox Basic Solid Phase Test (synthetic sample with inert auxiliary substance)
Format: cell-based, Aliivibrio fischeri
Conditions: for EC50: Aliivibrio fischeri
Excerpt: According to the invention, instead of a homogeneous solid sample with a relatively large mass (7 g in the Microtox® Basic Solid Phase Test), which is often unreachable for laboratory measurements of expensive or innovative materials, a so-called synthetic sample (as opposed to natural samples, i.e. soils and bottom sediments) of the same mass, containing the tested substance and an inert auxiliary substance (so called solid matrix) is being created. As a result, the synthetic sample simulates the soil contaminated with the tested substance. The synthetic sample prepared in such a way can be dispersed in the diluent and processed further according to the Microtox® Basic Solid Phase Test protocol. The Microtox® Basic Solid Phase Test protocol provides a series of steps covering, in turn: • suspending 7 g of the test sample in 35 ml of diluent in a 50 ml beaker, mixing for 10 min; • taking 2 mL of the suspension described above, while stirring it, into an appropriate cuvette; • performing a series of 1:2 dilutions of the test sample using the diluent; • reconstitution of freeze-dried Aliivibrio fischeri bacteria; • preparation and 15 min incubation of the reagent (10 µL of reconstituted bacteria and 0.5 mL of diluent); • bioluminescence measurement for time zero (bioluminescence before contact with the sample); • adding the reagent to each test sample and to the control cuvette; • incubation for 5 min, measurement of bioluminescence after 5 min incubation of bacteria with the sample; • incubation for another 10 min, measurement of bioluminescence after 15 min incubation of bacteria with the sample. The Microtox® protocol provides for the use of a 30-well incubator block maintaining a temperature of 15° C in the wells of the sample cuvettes and 5.5° C in the well of the bacterial suspension. According to the invention, a sample containing the substance to be test and an auxiliary substance is subjected to the procedure provided for in the Microtox® Basic Solid Phase Test. The pre-suspension is made by mixing the synthetic sample with a diluent (Microtox® Solid Phase Diluent: 3.5% aqueous NaCl solution) in appropriate proportions provided for in the measurement protocol, for example 7 g of the sample is mixed with 35 mL of diluent (weight/volume ratio of the sample to diluent is 1:5 g/mL), but after validation it is possible to use dispersions of any proportion (preferably from 1:4 g/mL to 1:6 g/mL) and scale (preferably samples weighing 3-10 g depending on capacity of the equipment used). In the case of hydrophobic chemicals, it is allowed to suspend them in a mixture of methanol with a diluent (e.g. 4% methanol solution) to increase their solubility. Then, the suspension is stirred in a tall beaker on a stirrer so that, as a result of mixing, the vortex always has the same, repeatable height, equal to half the height of the liquid level. A representative sample for further dilutions is drawn with an automatic pipette while the suspension is stirred, from half the depth of the suspension according to the Microtox® protocol. The further steps in the measurement (including but not limited to dilution, sampling, luminescence measurement, etc.) also follow the Microtox® Basic Solid Phase Test Procedure. […] A representative sample for further dilutions was taken from half the depth of the suspension without stirring interruption according to the Microtox® Basic Solid Phase Test protocol. […] The measurements were carried out in triplicate and the EC50 values were determined after 5 and 15 minutes of exposure. The obtained results with 95% confidence intervals, as well as the correlation coefficients are summarized below, in Table 2. Table 2. EC50 values [mg/L] obtained after 5 and 15 minutes exposure of A. fischeri bacteria to pure valsartan along with the corresponding confidence intervals.

Row | Compound | EC50 5 min (5 min exposure, 0.160 g pure valsartan + 6.840 g quartz sand in 35 mL diluent, single replicate, 95% confidence interval in brackets) | EC50 15 min (15 min exposure, 0.160 g pure valsartan + 6.840 g quartz sand in 35 mL diluent, single replicate, 95% confidence interval in brackets) | EC50 (5 min, 5 min exposure, 0.160 g pure valsartan + 6.840 g quartz sand in 35 mL diluent, single replicate, 95% confidence interval in brackets, read-out: EC50 5 min) [µg/mL] | EC50 (5 min, 5 min exposure, pure valsartan + quartz sand, mean of three replicates, read-out: EC50 5 min, Mean) [µg/mL] | EC50 (0.25 h, 15 min exposure, pure valsartan + quartz sand, mean of three replicates, read-out: EC50 15 min, Mean) [µg/mL] | EC50 5 min (5 min exposure, 0.200 g losartan potassium + 5.600 g quartz sand in 35 mL diluent (1:[…]), single replicate, 95% confidence interval in brackets) | EC50 15 min (15 min exposure, 0.200 g losartan potassium + 5.600 g quartz sand in 35 mL diluent (1:[…]), single replicate, 95% confidence interval in brackets) | EC50 (5 min, 5 min exposure, 0.200 g losartan potassium + 5.600 g quartz sand in 35 mL diluent (1:[…]), single replicate, 95% confidence interval in brackets, read-out: EC50 5 min) [µg/mL] | EC50 (5 min, 5 min exposure, pure losartan potassium + quartz sand, mean of three replicates, read-out: EC50 5 min, Mean) [µg/mL] | EC50 (0.25 h, 15 min exposure, 0.200 g losartan potassium + 5.600 g quartz sand in 35 mL diluent (1:[…]), single replicate, 95% confidence interval in brackets, read-out: EC50 15 min) [µg/mL] | EC50 (0.25 h, 15 min exposure, pure losartan potassium + quartz sand, mean of three replicates, read-out: EC50 15 min, Mean) [µg/mL]
1 | CCCCC(=O)N(Cc1ccc(-c2ccccc2-c2nnn[nH]2)cc1)[C@H](C(=O)O)C(C)C [valsartan] | 172.06 (102.02-290.17) mg/L and 88.31 (83.90-92.91) mg/L | 341.70 (338.33-358.97) mg/L and 242.80 (103.75-568.26) mg/L and 120.04 (99.20-145.28) mg/L | 169 | 143 ± 38.8 | 235 ± 90.7 |  |  |  |  |  | 
2 | CCCCc1nc(Cl)c(CO)n1Cc1ccc(-c2ccccc2-c2nn[nH]n2)cc1 [losartan potassium] |  |  |  |  |  | 594.25 (343.09-1028.98) mg/L and 667.23 (490.17-908.21) mg/L | 694.10 (541.64-889.82) mg/L and 629.33 (172.93-2289.90) mg/L | 490 | 584 ± 72.7 | 654 | 659 ± 26.7
